Source: patent publication US11911394B2, “Compound and method for the prevention of transmission of influenza virus” (Hoffmann-La Roche Inc., priority 2019, dated 2024)

Legend:
[1] = system: influenza A virus A/England/195/2009; experiment: Example 1 ferret transmission study, real-time RT-PCR of nasal wash; format: in vivo; settings: positive/total; for Sentinel DC ferrets positive for influenza as detected by the qRT-PCR: direct contact sentinels; for Sentinel RD ferrets positive for influenza as detected by the qRT-PCR: respiratory droplet sentinels
Method: In this experiment baloxavir was administered once to ferrets as s.c. suspension with 1 mg/kg at 4 different locations in the back. Oseltamivir phosphate (5 mg/kg) was orally administered twice daily for 5 days.
24 hours post infection, the 4 infected ferrets were nasal washed. Nasal washes were assayed immediately by plaquing on fresh MDCK cells for infectious virus and carrying out RT-PCR for viral RNA load. Each donor ferret was then treated with either baloxavir, oseltamivir phosphate or vehicle only. Baloxavir was administered once subcutaneously in 4 locations on the back with 1 mg/l mL/kg per injection (total 4 mg/4 mL/kg). After dosing of baloxavir blood samples (minimum 200 μl) were collected from the donor animals at 48 h and 144 h, respectively, for pharmacokinetics (PK) analysis.
A 5 mg/kg dose of oseltamivir phosphate was orally administered twice daily for 5 days, which is considered to be equivalent to the standard human adult dose of 75 mg for treatment (J Antimicrob Chemother 2014; 69: 2458-2469). After drug administration on day 1 one sentinel animal was introduced into same cage as each infected donor (DC animal) and one sentinel animal was introduced into adjacent cage (RD animal). Sentinel animals were not treated with any drug.
All ferrets were nasal washed on day 2 and every subsequent day until experiment end starting with RD animals, then DC animals, and finishing with donors. Plaque assay was performed immediately on nasal wash. Virus RNA was also monitored by RT-PCR. Daily observation of clinical signs including temperature, weight loss and respiratory signs was performed. In addition, virus exhaled in breath from the 4 donor animals was monitored by placing them in a chamber for 10 minutes and sampling air using sentinel MDCK cells.
140 μl of ferret nasal wash was used to extract RNA using the Qiagen Viral RNA mini kit (Cat No./ID: 52904), according to manufacturer's instructions.
Real-time PCR was performed using 7500 Real Time PCR system (ABI) in 20 μl reactions using AgPath-ID™ One-Step RT-PCR Reagents 10 μl RT-PCR buffer (2×) (Thermo Fisher, Cat. No. 4387391), 4 μl of RNA, 0.8 μl forward (5′[…] 3′, SEQ ID NO:1) and reverse primers (5′ […]3′, SEQ ID NO:2) and 0.4 μl probe (5′ FAM-[…]-BHQ1 3′, SEQ ID NO:3). Reverse transcription was carried out at 45° C. for 10 min. PCR amplification conditions consisted of 95° C. for 15 s and 60° C. for 1 min after an initial denaturation step at 95° C. for 10 min. In total 40 cycles were performed. For each sample, the Ct value for the target M gene was determined. M gene is an influenza gene encoding the 2 Matrix proteins M1 and M2. The M gene is detected in PCR and can be used to quantify the influenza virus. Based on the standard curves, absolute copy numbers were calculated to establish if the ferret was positive for influenza A.

A/Perth/265/2009 virus = experiment: Example 2 ferret contact transmission study, serology (HI assay) of recipient sera; format: in vivo; settings: for recipients demonstrating antibody responses to donor virus (serology): positive/total
From the text: Sera were collected from endpoint recipient blood samples by centrifugation, and non-specific inhibitors of agglutination were removed by treatment with receptor-destroying enzyme (RDE) (Denka Seiken) according to manufacturer's instructions. Treated sera were adsorbed with turkey RBCs prior to HI assay to remove non-specific agglutination factors. Briefly, sera (initially 1:20 dilution) were serially diluted twofold in PBS in V-bottom 96-well plates (final row left as PBS negative control). A/Perth/265/2009 virus adjusted to 4 haemagglutination units in 25 μL was mixed to all sample wells for 1 hr incubation at room temperature, followed by 45 min incubation of 1% turkey RBC. […] HI titre was calculated as the reciprocal of the highest serum dilution at which agglutination was inhibited.
This study consisted of three separate Experiments using different schedules of antiviral treatment and timing of naïve animal co-housing. In each experiment, twenty-four ferrets were randomly assigned to three groups (n=8): BXA, OST and placebo. Within each group, n=4 ferrets were designated as treated donor ferrets, and n=4 as naïve recipients. On 0 DPI (days post inoculation) for each experiment, all donor ferrets (each individually housed) were intranasally inoculated with influenza A/Perth/265/2009 at […] tissue culture infective doses (TCID50) in 40 μL of phosphate-buffered saline (PBS). As described above, donors in the BXA and placebo groups received a single antiviral treatment, whereas OST-group donors were treated daily until endpoint (excluding cull day). At the designated time point, naïve recipient ferrets were co-housed with treated donor ferrets (1:1 per cage) for a contact exposure period of 48 hr.
(§1) Experiment 2: Antiviral treatment commenced at 1 DPI, and recipient co-housing was delayed until 24 hr following treatment (2 DPI). Body weight and temperature were monitored daily from all animals. Daily nasal wash samples were collected using 1 mL of PBS from 1 DPI to 4 DPI for donor animals, and 1 DPE to 10 DPE for recipient animals. Donors were sacrificed at 4 DPI (2 DPE), and blood was collected from BXA- and placebo-treated ferrets by cardiac puncture. Recipients were maintained until 16 DPE, at which time blood was collected by cardiac puncture.
as §1, with “Experiment 3:” for “Experiment 2:”, “at 2” for “at 1”, “and recipients were co-housed immediately afterwards.” for “and recipient co-housing was delayed until 24 hr following treatment (2 DPI).”

O=C1c2c(O)c(=O)ccn2N([C@@H]2c3ccccc3SCc3c2ccc(F)c3F)[C@@H]2COCCN12 [baloxavir, baloxavir acid]
Sentinel DC ferrets positive for influenza as detected by the qRT-PCR [1]: 4/4 | Donor ferrets positive for influenza as detected by the qRT-PCR [1]: 4/4 | Sentinel RD ferrets positive for influenza as detected by the qRT-PCR [1]: 1/4 | reduction of antibody responses in TCID50-negative recipients compared to titres in placebo-group recipients (A/Perth/265/2009 virus; Example 2 Exp. 2 and 3): 16-32 fold | reduction of antibody response in TCID50-negative ferret compared to TCID50-positive ferrets (A/Perth/265/2009 virus; Example 2 Experiment 2, baloxavir-group recipient): > 32 fold change | recipients demonstrating antibody responses to donor virus (serology) (A/Perth/265/2009 virus; Example 2 Experiment 2): 2/4 | reduction of antibody titres in TCID50-negative recipients compared to TCID50-positive ferrets (A/Perth/265/2009 virus; Example 2 Experiment 3, TCID50-negative baloxavir-group recipients (2/4)): > 16 fold change

CCOC(=O)C1=C[C@@H](OC(CC)CC)[C@H](NC(C)=O)[C@@H](N)C1 [oseltamivir, oseltamivir phosphate, reference compound]
Sentinel DC ferrets positive for influenza as detected by the qRT-PCR [1]: 4/4 | Donor ferrets positive for influenza as detected by the qRT-PCR [1]: 4/4 | Sentinel RD ferrets positive for influenza as detected by the qRT-PCR [1]: 4/4 | recipients demonstrating antibody responses to donor virus (serology) (A/Perth/265/2009 virus; Example 2 Experiment 2): 4/4
